Consider twelve compounds from US11873309B2, “Heterocyclic compounds as immunomodulators” (Incyte Corporation, priority 2016, dated 2024).

A value given as a limit tells only on which side of the number the result lay.

A word on the IC50: it is the concentration that gives 50% inhibition.

For this experiment, the target named is T1, PD-1/PD-L1 protein/protein interaction (recombinant human PD-L1 protein (19-238), recombinant human PD-1 protein (25-167)) (Homo sapiens, UniProt Q9NZQ7).
T1 construct: Recombinant human PD-L1 protein (19-238) with a His-tag at the C-terminus; purchased AcroBiosystems PD1-H5229 (PD-L1); PD1-H5257 (PD-1)
T1 sequence (Q9NZQ7 19-238): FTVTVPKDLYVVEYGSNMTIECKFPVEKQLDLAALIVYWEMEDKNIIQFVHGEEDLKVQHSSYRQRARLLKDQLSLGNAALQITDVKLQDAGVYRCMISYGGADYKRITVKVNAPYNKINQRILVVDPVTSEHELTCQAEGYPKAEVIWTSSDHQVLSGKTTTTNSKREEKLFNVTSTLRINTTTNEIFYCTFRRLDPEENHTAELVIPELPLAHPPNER
As to the kind of experiment: PD-1/PD-L1 Homogeneous Time-Resolved Fluorescence (HTRF) Binding Assay. The following applies: 25° C., PBS buffer pH 7.4, 40 minutes preincubation with inhibitors. The procedure:
Example A. PD-1/PD-L1 Homogeneous Time-Resolved Fluorescence (HTRF) Binding Assay
The assays were conducted in a standard black 384-well polystyrene plate with a final volume of 20 μL. Inhibitors were first serially diluted in DMSO and then added to the plate wells before the addition of other reaction components. The final concentration of DMSO in the assay was 1%. The assays were carried out at 25° C. in the PBS buffer (pH 7.4) with 0.05% Tween-20 and 0.1% BSA. Recombinant human PD-L1 protein (19-238) with a His-tag at the C-terminus was purchased from AcroBiosystems (PD1-H5229). Recombinant human PD-1 protein (25-167) with Fc tag at the C-terminus was also purchased from AcroBiosystems (PD1-H5257). PD-L1 and PD-1 proteins were diluted in the assay buffer and 10 μL was added to the plate well. Plates were centrifuged and proteins were preincubated with inhibitors for 40 minutes. The incubation was followed by the addition of 10 μL of HTRF detection buffer supplemented with Europium cryptate-labeled anti-human IgG (PerkinElmer-AD0212) specific for Fc and anti-His antibody conjugated to SureLight®-Allophycocyanin (APC, PerkinElmer-AD0059H). After centrifugation, the plate was incubated at 25° C. for 60 min. before reading on a PHERAstar FS plate reader (665 nm/620 nm ratio). Final concentrations in the assay were […], 10 nM PD-L1, 1 nM europium anti-human IgG and 20 nM anti-His-Allophycocyanin. IC50 determination was performed by fitting the curve of percent control activity versus the log of the inhibitor concentration using the GraphPad Prism 5.0 software.
For orientation: Time-resolved FRET reads energy transfer from a long-lived donor to a nearby acceptor.
Consider `COc1cccc(-c2cccc(NC(=O)c3nc4c(n3C)CCNC4)c2C#N)c1F` [Example 39, N-(2-cyano-2′-fluoro-3′-methoxybiphenyl-3-yl)-1-methyl-4,5,6,7-tetrahydro-1H-imidazo[4,5-c]pyridine-2-carboxamide], for which the IC50 is no more than 100 nM.

With `Cc1c(NC(=O)c2nc3c(s2)CNCC3)cccc1-c1cccc2[nH]ncc12` [Example 25, N-[3-(1H-indazol-4-yl)-2-methylphenyl]-4,5,6,7-tetrahydro[1,3]thiazolo[5,4-c]pyridine-2-carboxamide], the IC50 is no more than 100 nM. As for `COc1cccc(-c2cccc(NC(=O)c3nc4c(n3C)CCN(CCO)C4)c2C#N)c1F` [Example 40, N-(2-cyano-2′-fluoro-3′-methoxybiphenyl-3-yl)-5-(2-hydroxyethyl)-1-methyl-4,5,6,7-tetrahydro-1H-imidazo[4,5-c]pyridine-2-carboxamide], the figure is no more than 100 nM; as for `Cc1c(NC(=O)c2nc3c(s2)CNCC3)cccc1-c1ccccc1` [Example 26, N-(2-methylbiphenyl-3-yl)-4,5,6,7-tetrahydro[1,3]thiazolo[5,4-c]pyridine-2-carboxamide], no more than 100 nM. On to `COc1cccc(-c2cccc(NC(=O)c3cn4c(n3)CNCC4)c2C#N)c1F` [Example 19, N-(2-cyano-2′-fluoro-3′-methoxybiphenyl-3-yl)-5,6,7,8-tetrahydroimidazo[1,2-a]pyrazine-2-carboxamide], for which the IC50 was no more than 100 nM. In the case of `Cn1c(C(=O)Nc2cccc(-c3ccc4c(c3)OCCO4)c2C#N)nc2c1CCN(CCO)C2` [Example 13, N-(2-cyano-3-(2,3-dihydrobenzo[b][1,4]dioxin-6-yl)phenyl)-5-(2-hydroxyethyl)-1-methyl-4,5,6,7-tetrahydro-1H-imidazo[4,5-c]pyridine-2-carboxamide], the IC50 was no more than 100 nM. Take `Cc1c(NC(=O)c2nc3c(s2)CNCC3)cccc1-c1ccc2cn(C)nc2c1` [Example 29, N-[2-methyl-3-(2-methyl-2H-indazol-6-yl)phenyl]-4,5,6,7-tetrahydro[1,3]thiazolo[5,4-c]pyridine-2-carboxamide]: the IC50 fell in the range of 100 to 500 nM. Turning to `N#Cc1c(NC(=O)c2nc3c(s2)CNCC3)cccc1-c1ccccc1` [Example 2, N-(2-cyanobiphenyl-3-yl)-4,5,6,7-tetrahydro[1,3]thiazolo[5,4-c]pyridine-2-carboxamide], the IC50 is no more than 100 nM. As for `COc1cccc(-c2cccc(NC(=O)c3nc4c(s3)CNCC4)c2C#N)c1F` [Example 5, N-(2-cyano-2′-fluoro-3′-methoxybiphenyl-3-yl)-4,5,6,7-tetrahydro[1,3]thiazolo[5,4-c]pyridine-2-carboxamide], the figure is no more than 100 nM.

On to `N#Cc1c(NC(=O)c2nc3n(n2)CCNC3)cccc1-c1ccc2c(c1)OCCO2` [Example 14, N-[2-cyano-3-(2,3-dihydro-1,4-benzodioxin-6-yl)phenyl]-5,6,7,8-tetrahydro[1,2,4]triazolo[1,5-a]pyrazine-2-carboxamide], for which the IC50 was in the range of 500 to 10000 nM. For the compound `O=C(Nc1cccc(-c2ccccc2)c1Cl)c1nc2c(s1)CNCC2` [Example 33, N-(2-chlorobiphenyl-3-yl)-4,5,6,7-tetrahydro[1,3]thiazolo[5,4-c]pyridine-2-carboxamide], the IC50 was no more than 100 nM. In the case of `Cc1c(NC(=O)c2nc3c(s2)CNCC3)cccc1-c1cccc(CO)c1F` [Example 24, N-[2′-fluoro-3′-(hydroxymethyl)-2-methylbiphenyl-3-yl]-4,5,6,7-tetrahydro[1,3]thiazolo[5,4-c]pyridine-2-carboxamide], the IC50 was in the range of 500 to 10000 nM.
